The supplement of paper PMC11451515

What was measured:
[1] = test system: SEM cells; experiment: AUC of viability dose-response curve (% viability x log10 dose units); higher = less sensitive; conditions: 48 h
Outline: (§1)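 In 1536-well plates, leukemia cells adapted to each medium (500 or 1000 cells/well) were exposed for 48 h at 37°C to library compounds in DMSO across 11 threefold doses, 47 μM down to 0.79 nM. Viability was read by CellTiter-Glo One luminescence and normalised per plate to DMSO and cell-free wells. A four-parameter log-logistic fit over log10 doses was integrated by trapezoidal rule. This yielded the area under the curve, with over-full-viability curves scaled and quality-control failures dropped.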

[2] = test system: NOMO1; experiment: as above; conditions: 48 h
Outline: as §1

[3] = test system: P12-Ichikawa; experiment: as above; conditions: 48 h
Outline: as §1

[4] = test system: SEM cells; experiment: cell viability relative to DMSO control; higher = less cytotoxic; conditions: 48 h
Outline: (§2)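 Leukemia cells (NOMO1 or SEM, 500 cells/well; P12-Ichikawa, 1000 cells/well) were seeded in 5 μl in 1536-well plates after at least four passages of adaptation to each medium. They received library compounds in DMSO by pin dosing, 11 threefold points from 47 μM to 0.79 nM. Luminescence with CellTiter-Glo One was read after 48 h at 37°C. Viability is stated per plate relative to DMSO wells, with cell-free wells as background.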

[5] = test system: NOMO1; experiment: as above; conditions: HPLM + 10% dialyzed FBS, 48 h
Outline: as §2

[6] = test system: P12-Ichikawa; experiment: as above; conditions: RPMI 5 mM glucose + 10% FBS, 48 h
Outline: as §2

CC1COC2=C3N1\C=C(C(O)=O)/C(=O)C3=CC(=C2N4CCN(C)CC4)F (stereo not given)
AUC of viability dose-response curve
Conditions | [1] | [2] | [3]
HPLM + 10% dialyzed FBS | 470 | 459 | 463
RPMI 5 mM glucose + 10% FBS | 453 | 443 | 452
RPMI 5 mM glucose + 10% dialyzed FBS | 463 | 446 | 438

cell viability [%], [4]
Conditions | HPLM + 10% dialyzed FBS | RPMI 5 mM glucose + 10% FBS
0.000781 µM | 119 | 111
0.00234 µM | 128 | 124
0.00702 µM | 122 | 125
0.0211 µM | 122 | 136
0.0632 µM | 121 | 142
0.19 µM | 125 | 118
0.569 µM | 128 | 117
1.71 µM | 119 | 122
5.12 µM | 118 | 117
15.4 µM | 120 | 106
46.1 µM | 119 | 115

Cl.Nc1ccn([C@@H]2O[C@H](CO)[C@@H](O)C2(F)F)c(=O)n1
AUC of viability dose-response curve
Conditions | [1] | [2] | [3]
HPLM + 10% dialyzed FBS | 179 | 263 | 230
RPMI 5 mM glucose + 10% FBS | 175 | 243 | 223
RPMI 5 mM glucose + 10% dialyzed FBS | 141 | 248 | 212

C[C@@H](N)c1ccc(C(=O)Nc2ccnc3[nH]ccc23)cc1
AUC of viability dose-response curve
Conditions | [1] | [2] | [3]
HPLM + 10% dialyzed FBS | 454 | 462 | 471
RPMI 5 mM glucose + 10% FBS | 437 | 455 | 461
RPMI 5 mM glucose + 10% dialyzed FBS | 455 | 455 | 466

cell viability [%], [4]
Conditions | HPLM + 10% dialyzed FBS | RPMI 5 mM glucose + 10% FBS
0.000781 µM | 99.4 | 115
0.00234 µM | 115 | 135
0.00702 µM | 122 | 124
0.0211 µM | 121 | 155
0.0632 µM | 121 | 145
0.19 µM | 144 | 140
0.569 µM | 136 | 130
1.71 µM | 118 | 139
5.12 µM | 118 | 114
15.4 µM | 105 | 86.7
46.1 µM | 40.7 | 52.5

CC[C@@]1([C@@H]2O[C@@H]([C@H]3O[C@@](O)(CO)[C@H](C)C[C@@H]3C)C[C@@H]2C)CC[C@H]([C@]2(C)CC[C@]3(C[C@H](O)[C@@H](C)[C@@H]([C@@H](C)[C@@H](OC)[C@H](C)C(=O)[O-])O3)O2)O1
AUC of viability dose-response curve
Conditions | [1] | [2] | [3]
HPLM + 10% dialyzed FBS | 336 | 381 | 375
RPMI 5 mM glucose + 10% FBS | 324 | 409 | 350
RPMI 5 mM glucose + 10% dialyzed FBS | 343 | 393 | 340

COC(=O)/C=C/C(=O)OC
AUC of viability dose-response curve
Conditions | [1] | [2] | [3]
HPLM + 10% dialyzed FBS | 406 | 433 | 323
RPMI 5 mM glucose + 10% FBS | 354 | 402 | 368
RPMI 5 mM glucose + 10% dialyzed FBS | 376 | 413 | 352

[4], HPLM + 10% dialyzed FBS
Conditions | cell viability [%]
0.000781 µM | 118
0.00234 µM | 126
0.00702 µM | 106
0.0211 µM | 119
0.0632 µM | 135
0.19 µM | 135
0.569 µM | 126
1.71 µM | 124
5.12 µM | 60
15.4 µM | 43.8
46.1 µM | 43.3

NCC(=O)Nc1ccc(-n2nc(C(F)(F)F)cc2-c2ccc3c(ccc4ccccc43)c2)cc1
Conditions | AUC of viability dose-response curve, [1] | AUC of viability dose-response curve, [2] | cell viability, [5] [%] | cell viability, [6] [%]
0.000781 µM | – | – | 129 | 24.1
0.00234 µM | – | – | 123 | 123
0.00702 µM | – | – | 123 | 137
0.0211 µM | – | – | 137 | 133
0.0632 µM | – | – | 134 | 125
0.19 µM | – | – | 124 | 120
0.569 µM | – | – | 138 | 105
1.71 µM | – | – | 147 | 106
5.12 µM | – | – | 131 | 92.1
15.4 µM | – | – | 108 | 79.2
46.1 µM | – | – | 78.1 | 79
HPLM + 10% dialyzed FBS | 460 | 458 | – | –
RPMI 5 mM glucose + 10% FBS | 457 | 462 | – | –
RPMI 5 mM glucose + 10% dialyzed FBS | 424 | 447 | – | –

cell viability [%], [4]
Conditions | HPLM + 10% dialyzed FBS | RPMI 5 mM glucose + 10% FBS | RPMI 5 mM glucose + 10% dialyzed FBS
0.000781 µM | 109 | 87.7 | 119
0.00234 µM | 136 | 100 | 138
0.00702 µM | 117 | 112 | 119
0.0211 µM | 121 | 102 | 124
0.0632 µM | 120 | 116 | 120
0.19 µM | 112 | 114 | 114
0.569 µM | 129 | 101 | 128
1.71 µM | 121 | 107 | 132
5.12 µM | 113 | 98.3 | 100
15.4 µM | 99.1 | 84.8 | 51.4
46.1 µM | 95 | 72.6 | 45.1

CN(C)C/C=C/C(=O)Nc1cc2c(Nc3ccc(F)c(Cl)c3)ncnc2cc1O[C@H]1CCOC1
AUC of viability dose-response curve
Conditions | [1] | [2] | [3]
HPLM + 10% dialyzed FBS | 320 | 339 | 337
RPMI 5 mM glucose + 10% FBS | 304 | 342 | 338
RPMI 5 mM glucose + 10% dialyzed FBS | 324 | 345 | 347

Nc1nc(F)nc2c1ncn2[C@@H]1O[C@H](CO)[C@@H](O)[C@H]1O
AUC of viability dose-response curve
Conditions | [1] | [2] | [3]
HPLM + 10% dialyzed FBS | 228 | 283 | 293
RPMI 5 mM glucose + 10% FBS | 229 | 291 | 293
RPMI 5 mM glucose + 10% dialyzed FBS | 217 | 279 | 282

[4], RPMI 5 mM glucose + 10% FBS
Conditions | cell viability [%]
0.000781 µM | 114
0.00234 µM | 119
0.00702 µM | 125
0.0211 µM | 141
0.0632 µM | 115
0.19 µM | 13.2
0.569 µM | 10.9
1.71 µM | 7.49
5.12 µM | 6.64
15.4 µM | 6.09
46.1 µM | 6.22
